{
  "source": "patent US12544377B2",
  "about": "“Compounds, compositions and methods of treating or preventing acute lung injury” (Yale University, priority 2017, dated 2026)",
  "key": {"[1]": {"system": "HCl-induced lung injury", "assay": "HCl (acid aspiration)-induced lung injury in mice", "type": "in vivo", "conditions": "for pulmonary permeability, HCl-induced lung injury, treatment after injury: six hours after injury; for HCl-induced acute lung injury / survival of mice: FIG. 15; for lung permeability, HCl-induced lung injury, preventative treatment: 1.5 mg/Kg intra-nasal 0.5 hour before HCl (0.05 M); for survival, HCl-induced lung injury, preventative treatment: 1.5 mg/Kg intra-nasal 0.5 hour before HCl (0.1 M)", "procedure": "Mice were anaesthetized by ketamine/Xylazine ([…] and 100 mg/kg) and were suspended vertically from their incisors on a custom-made mount for orotracheal instillation. A 22 G catheter (Jelco, Smiths Medical) was guided 1.5 cm below the vocal cords, and 2.5 μl/g of 0.05 M HCl was instilled. Two hours after the induction of injury, 100 μl of FITC-labeled albumin (10 mg/ml) was injected via retro-orbital vein. Measurements were made 6 hours after the induction of injury. Control animals received saline instead of HCl in the same manner. In survival experiments, mice received 2.5 μl/g of 0.1 M HCl orotracheally and the observation period was extended up to 30 h."}, "[2]": {"system": "LPS-induced lung injury", "assay": "LPS-induced lung injury in mice", "type": "in vivo", "conditions": "for difference between HS-DKO and WT control mice in permeability and edema, LPS-induced injury: mice fed diet containing BHA", "procedure": "Mice were anesthetized with ketamine/Xylazine (1 gm/kg and 100 mg/kg) and were allowed to inhaled 50 μl of LPS (1 mg/ml) placed as droplets on nares. Mice postures were maintained upright. Twenty-two hours after the induction of injury, 100 μl of FITC-labeled albumin (10 mg/ml) were injected via retro-orbital vein, and 24 hours after the induction of injury, mice were euthanized by exsanguination. To obtain bronchoalveolar lavage fluid, 1 ml of PBS was instilled into lungs and retrieved a via a tracheal catheter. In some experiments, mice were first fed with antioxidant BHA in food (Harlan Laboratory Services) for 7 days before the induction of lung injury."}, "[3]": {"system": "p47phox Ser-208 phosphorylation in neutrophils", "assay": "Western analysis of fMLP-stimulated neutrophils (phospho-Ser-208 p47phox, MAP3K3 protein)", "conditions": "for p47phox phosphorylation at Ser-208 in neutrophils: pretreated 10 min before fMLP (1 μM), phospho-specific antibody", "experimental": "One day after lung injury induction, lung permeability (FIG. 5D) and histology (FIG. 5E) were examined. […] The C57Bl mice were treated as above and their survival was analyzed by the Mantel-Cox Log-Rank test."}, "[4]": {"system": "bleomycin-induced lung fibrosis", "assay": "Bleomycin-induced lung fibrosis in mice (hydroxyproline levels)", "type": "in vivo", "conditions": "0.05 unit bleomycin once, one week later 60 mg/kg orally for five days", "from_the_text": "A long detrimental effect of ALI is fibrosis. […] A bleomycin-induced lung fibrosis model was used in this study: Gan, et al., 2012, Nat. Cell Biol. 14:686."}, "[5]": {"system": "human neutrophils", "assay": "ROS production assay in human neutrophils stimulated with fMLP", "conditions": "fMLP (100 nM), 20 nM pazopanib", "experimental": "One day after lung injury induction, lung permeability was determined. […] Six hours after lung injury induction, lung permeability (FIG. 12D) and histology (FIG. 12E) were examined. […] Data from one experiment are presented as mean±sem (Student t-Test, *p<0.05, n=5). […] Six hours after lung injury induction, lung permeability were examined. […] Data from one experiment are presented as mean±sem (Student t-Test, *p<0.05, n=5)."}, "[6]": {"system": "mouse neutrophils", "assay": "ROS release assay in mouse neutrophils stimulated with fMLP", "conditions": "pretreated 10 min before fMLP (1 μM)", "experimental": "Mice were euthanized in a CO2 chamber according to approved protocol, bone marrow was harvested from long bones of the mice, red blood cells (RBCs) were lysed with ACK buffer (155 mM NH4Cl, 10 mM KHCO3 and 127 μM EDTA), the cells were layered on a discontinuous Percoll gradient composed of 81%, 62% and 45% Percoll layers, and the cells were isolated from the interphase between 81% and 62% Percoll layers. Cells were washed in HBSS and used for various assays.\nNeutrophils were suspended in a reaction mixture (0.25% BSA in HBSS with Ca^2+ and Mg^2+, 10 mM Isoluminol, 100 μ/ml HRP), distributed cells in the well of a 96 well plate, and stimulated with fMLP (10 μM). Isoluminol-enhanced chemiluminescence was recorded continuously in a plate reader (Perkin Elmer)."}, "[7]": {"conditions": "1.5 mg/Kg intra-nasal 1 h after HCl (0.05 M)"}},
  "note": "Entries after “also recorded” stand apart in the source; their conditions may differ.",
  "data": [
    {"molecule": "Cc1ccc(NC(=O)c2ccc(CN3CCN(C)CC3)cc2)cc1Nc1nccc(-c2cccnc2)n1", "note": "[imatinib, 4-[(4-methylpiperazin-1-yl)methyl]-N-(4-methyl-3-{[4-(pyridin-3-yl)pyrimidin-2-yl]amino}phenyl)benzamide]", "values": [
      {"measurement": "pulmonary permeability, HCl-induced lung injury, treatment after injury", "setting": "[1]; [7]", "value": "ineffective in reducing lung permeability; also recorded: does not attenuate HCl-induced lung injury"},
      {"measurement": "pulmonary permeability, HCl-induced lung injury, treatment after injury", "setting": "[1]; 1.5 mg/Kg intra-nasal 1 h after HCl (0.05 M), listed as Imatinib", "value": "trend of aggravation of the injury"}
    ]},
    {"molecule": "NC1(c2ccc(-c3nc4ccn5c(=O)[nH]nc5c4cc3-c3ccccc3)cc2)CCC1", "note": "[MK-2206, 8-[4-(1-Aminocyclobutyl)phenyl]-9-phenyl-2H-[1,2,4]triazolo[3,4-f][1,6]naphthyridin-3-one]", "values": [
      {"measurement": "effect of pazopanib on permeability in LPS-injured lungs in presence of AKT inhibitor", "setting": "[2]; MK-2206 10 mg/Kg with or without 60 mg/Kg/day pazopanib via gavage", "value": "abrogates the effect of pazopanib on permeability"}
    ]},
    {"molecule": "Avastin: Avastin, a VEGF inhibitor; described in b209 as a neutralizing anti-VEGFR antibody (FIG. 15)", "values": [
      {"measurement": "HCl-induced acute lung injury / survival of mice", "setting": "[1]", "value": "limited effects"},
      {"measurement": "HCl-induced acute lung injury / survival of mice", "setting": "[1]; listed as neutralizing anti-VEGFR antibody", "value": "no effect in survival"}
    ]},
    {"molecule": "COc1ccc(O)c(C(C)(C)C)c1", "note": "[BHA, butylated hydroxyanisole]", "values": [
      {"measurement": "pazopanib's effect on lung permeability in mice fed BHA", "setting": "[2]; chew containing BHA, 60 mg/Kg/day pazopanib via gavage, LPS", "value": "abrogates pazopanib's effect on lung permeability"},
      {"measurement": "difference between HS-DKO and WT control mice in permeability and edema, LPS-induced injury", "setting": "[2]", "value": "abrogates the difference"},
      {"measurement": "difference between HS-DKO and WT control mice in permeability and edema, LPS-induced injury", "setting": "[2]; listed as butylated hydroxyanisole (BHA)", "value": "dissipated"}
    ]},
    {"molecule": "Cc1ccc(Nc2nccc(N(C)c3ccc4c(C)n(C)nc4c3)n2)cc1S(N)(=O)=O", "note": "[pazopanib, 5-((4-((2,3-dimethyl-2H-indazol-6-yl)(methyl)amino)pyrimidin-2-yl)amino)-2-methylbenzenesulfonamide]", "values": [
      {"measurement": "lung permeability, HCl-induced lung injury, preventative treatment", "setting": "[1]", "value": "pretreatment attenuates HCl-induced lung injury"},
      {"measurement": "lung permeability, HCl-induced lung injury, preventative treatment", "setting": "[1]; listed as Pazopanib", "value": "effective in reduction of permeability"},
      {"measurement": "survival, HCl-induced lung injury, preventative treatment", "setting": "[1]", "value": "pretreatment reduces mortality"},
      {"measurement": "survival, HCl-induced lung injury, preventative treatment", "setting": "[1]; listed as Pazopanib", "value": "extending survival"},
      {"measurement": "alveolar wall thickening and edema (histology), HCl-induced lung injury", "setting": "[1]; [7]", "value": "decreased"},
      {"measurement": "pulmonary permeability, HCl-induced lung injury, treatment after injury", "setting": "[1]; [7]", "value": "decreased pulmonary permeability; also recorded: attenuates HCl-induced lung injury"},
      {"measurement": "survival, HCl-induced lung injury, treatment after injury", "setting": "[1]; 2.5 mg/Kg intra-nasal 1 h after HCl (0.1 M)", "value": "significantly extended the survival; also recorded: pazopanib treatment reduces mortality"},
      {"measurement": "lung injury (permeability, survival) in mice lacking p47phox", "setting": "[1]; p47phox-deficient mice, FIGS. 16C & 16E", "value": "showed no effects; also recorded: abrogated the therapeutic effect of pazopanib"},
      {"measurement": "increase in MAP3K3 protein content induced by fMLP", "setting": "[3]; neutrophils, fMLP", "value": "abrogated increase in MAP3K3 protein content"},
      {"measurement": "p47phox phosphorylation at Ser-208 in neutrophils", "setting": "[3]", "value": "inhibits phosphorylation of Ser-208"},
      {"measurement": "p47phox phosphorylation at Ser-208 in neutrophils", "setting": "[3]; listed as Pazopanib", "value": "inhibit"},
      {"measurement": "lung fibrosis (levels of hydroxyproline)", "setting": "[4]", "value": "inhibits bleomycin-induced lung fibrosis"},
      {"measurement": "lung fibrosis (levels of hydroxyproline)", "setting": "[4]; listed as Pazopanib", "value": "inhibit lung fibrosis"},
      {"measurement": "ROS production from human neutrophils", "setting": "[5]", "value": "increases ROS production from human neutrophils"},
      {"measurement": "mortality, LPS-induced lung injury, therapeutic modality", "setting": "[2]; 1.5 mg/Kg intra-nasal 24 h after LPS", "value": "reduced mortality; also recorded: therapeutic treatment of pazopanib reduces mortality"},
      {"measurement": "mortality, LPS-induced lung injury, prophylactic modality", "setting": "[2]; 60 mg/Kg/day via gavage two days before injury", "value": "reduces mortality"},
      {"measurement": "lung injury in mice lacking MEKK2/3 (HS-DKO), LPS", "setting": "[2]; HS-DKO mice, 60 mg/Kg/day via gavage, FIGS. 12C-12D", "value": "no effects on lung injury"},
      {"measurement": "AKT phosphorylation in LPS-injured HS-DKO lungs", "setting": "[2]; HS-DKO mice, FIG. 13E", "value": "little effect on AKT phosphorylation"},
      {"measurement": "alveolar wall thickening and edema (histology), LPS-induced lung injury", "setting": "[2]; WT C57Bl mice, 60 mg/Kg/day via gavage from two days before LPS", "value": "reduced"},
      {"measurement": "pulmonary permeability, LPS-induced lung injury", "setting": "[2]; WT C57Bl mice, 60 mg/Kg/day via gavage from two days before LPS, one day after injury, 60 mg/kg/day", "value": "reduced pulmonary permeability; also recorded: attenuates LPS-induced lung injury"},
      {"measurement": "AKT phosphorylation in LPS-injured lungs", "setting": "[2]; WT mice, FIG. 13D", "value": "increased AKT phosphorylation"},
      {"measurement": "ROS production from WT mouse neutrophils", "setting": "[6]", "value": "led to increases in the ROS production; also recorded: increases ROS release from neutrophils"}
    ]}
  ]
}
